Assay results as given in patent publication US12616738B2, “Solid compositions comprising a GLP-1 agonist and a salt of N-(8-(2-hydroxybenzoyl)amino)caprylic acid” (Novo Nordisk A/S, priority 2018, dated 2026).
Where two headings read alike, the source gives them in different places.

Key:
[1] = Assay I: SNAC solubility in combination with selected hydrotropes; conditions: for Fold increase in solubility: SNAC solubility relative to SNAC control (no hydrotrope), hydrotrope 200 mg/mL, pH 6; for SNAC concentration: hydrotrope 200 mg/mL in ultrapure water, pH 6, 200 mg SNAC added, 4 hours at room temperature, RP-HPLC
[2] = pH 6
[3] = pH 6; remark: listed apart in the source

Fold increase in solubility [1] [fold] | SNAC concentration [1] [mg/mL] | effect on SNAC solubility (FIG. 1) [2] | Compound | Fold increase in solubility [3] [fold] | SNAC concentration [3] [mg/mL]
9.6 | 5.66 |  | O=C(O[C@@H]1Cc2c(O)cc(O)cc2O[C@@H]1c1cc(O)c(O)c(O)c1)c1cc(O)c(O)c(O)c1 [Epigallocatechin gallate] |  | 
7.8 | 4.58 |  | CCN(CC)C(=O)c1cccnc1 [N,N diethyl nicotinamide] |  | 
38 | 22.46 |  | CN(C)C(=O)c1ccccc1 [N,N dimethyl benzamide] |  | 
 |  | dose dependent effect | NC(=O)c1cccnc1 [Nicotinamide] |  | 
 |  |  | O=C([O-])c1ccccc1O.[Na+] [Sodium salicylate] | 2.7 | 1.59
1.3 | 0.77 |  | NC(N)=O [Urea] |  | 
